Reference: patent US5158940A (priority 1990, dated 1992)
Structures can show the parent of a compound that is named as a salt.

Tests used:
rheumatoid arthritis = type: in vivo, person
Source text: A person was initially diagnosed in 1975 with polyarthritis and an elevated serum rheumatoid factor level. Since then, the patient had required almost uninterrupted treatment with either supraphysiologic doses of steroid or remission-inducing agents. These included hydroxycloroquine, gold salts, cytoxan and most recently, penicillamine together with prednisone.
Prior to initiating suramin therapy, penicillamine and prednisone were discontinued and the patient was placed on physiologic replacement doses of hydrocortisone. […] Their serum rheumatoid factor titer was 1:2560. Serum antinuclear antibodies were absent and both anti-DNA screen and LE cell test were negative.

[1] = in vivo; cited from earlier work
[2] = system: reverse transcriptase enzyme; conditions: in vitro; JAMA 258 p. 1347-51 (1987); cited from earlier work
[3] = system: human immunodeficiency virus (HIV); conditions: in vitro; JAMA 258 p. 1347-51 (1987); cited from earlier work
various growth factors = conditions: in vitro; J. Cellular Physiology 132 p. 143-8 (1987); cited from earlier work
[4] = system: cytoplasmic and intranuclear enzymes; conditions: Cancer Res. 47 p. 4694-8 (1987) and J. Clin. Onc. 7 p. 499-508 (1989); cited from earlier work
parasitic infections = conditions: one gram bolus parenterally once per week for six weeks, total six grams; cited from earlier work
[5] = nine months after initial start, no suramin after third cycle at six months
[6] = treatment period plus three months afterwards without suramin

Compound: Cc1ccc(C(=O)Nc2ccc(S(=O)(=O)O)c3cc(S(=O)(=O)O)cc(S(=O)(=O)O)c23)cc1NC(=O)c1cccc(NC(=O)Nc2cccc(C(=O)Nc3cc(C(=O)Nc4ccc(S(=O)(=O)O)c5cc(S(=O)(=O)O)cc(S(=O)(=O)O)c45)ccc3C)c2)c1 [Suramin, hexasodium salt of 8,8'-(carbonyl-bis(imino-3,1-phenylenecarbonylimino(4-methyl-3,1-phenylene)carbonylimo))bis-1,3,5-naphthalenetrisulfonic acid]
- formal rheumatologic evaluation (inflammatory joint disease, synovial proliferation) (rheumatoid arthritis; at the end of therapy): virtually no inflammatory joint disease with only minimal synovial proliferation in the ulnar carpal region of their right wrist
- joint abnormalities in follow up hand photograph (rheumatoid arthritis; follow up hand photograph): failed to show any significant change in their minimal joint abnormalities
- hematologic, hepatic or renal toxicity (rheumatoid arthritis; in vivo): did not experience any significant hematologic, hepatic or renal toxicity
- size of rheumatoid nodules (rheumatoid arthritis; initially documented after three months, more pronounced at five months): regression in the size of their multiple rheumatoid nodules
- arthritic symptoms at nine months (rheumatoid arthritis; [5]): continued to remain without arthritic symptoms
- size of remaining rheumatoid nodules (rheumatoid arthritis; [5]): remained unchanged
- disappearance of rheumatoid nodules (rheumatoid arthritis; start of third cycle at five months): complete disappearance of as many as a third
- arthritic symptoms (rheumatoid arthritis; [6]): improvement in their arthritic symptoms
- synovial swelling (rheumatoid arthritis; [6]): decreased synovial swelling
- plasma half-life [1]: 45 to 55 days
- ability to inhibit the reverse transcriptase enzyme [2]: inhibit the reverse transcriptase enzyme
- ability to revert the cytopathic effect of HIV [3]: revert the cytopathic effect of human immunodeficiency virus (HIV) in vitro
- ability to inhibit the activity of various growth factors (various growth factors): inhibit the activity of various growth factors in vitro
- binding to a variety of cytoplasmic and intranuclear enzymes [4]: bind to a variety of cytoplasmic and intranuclear enzymes
- effectiveness for treating parasitic infections (parasitic infections): generally effective for treating parasitic infections
